Assays:
[1] = test system: PR/8-R292K mutant (H1N1, recombinant oseltamivir-resistant); assay type: cell-based, influenza A virus (H1N1)
[2] = test system: PR/8-I38T mutant (H1N1, recombinant baloxavir-resistant); assay type: cell-based, influenza A virus (H1N1)

## C=CCn1cc(CNCc2noc(-c3ccc4c(c3)OCO4)n2)c(C)n1 [11D4]
[1]
  EC50: 21.5 ± 5.49 µM
[2]
  EC50: 32.4 ± 1.52 µM

## C=CCn1cc(-c2cc(-c3ccc(C(=O)O)cc3)[nH]c(=N)c2C#N)cn1 [12C5]
[1]
  EC50: 28.6 ± 0.99 µM
[2]
  EC50: 35.4 ± 1.02 µM

## CCSc1ncc(-c2cc(-c3c(C)nn(C)c3C)nc(N)c2C#N)cn1 [21A5]
[1]
  EC50: 9.27 ± 0.55 µM
[2]
  EC50: 14.1 ± 0.47 µM

## Cc1cccnc1CCNc1nc2nonc2nc1NCc1cccs1 [21B1]
[1]
  EC50: 14.6 ± 1.44 µM
[2]
  EC50: 37 ± 0.67 µM

## CCC(CC)O[C@@H]1C=C(C(=O)O)C[C@H](N)[C@H]1NC(C)=O [OC, Oseltamivir carboxylate, reference compound]
[1]
  EC50: > 100 µM

## O=C(O)[C@H]1C2CCC(CC2)[C@@H]1Nc1nc(-c2c[nH]c3ncc(F)cc23)ncc1F [VX-787, reference compound]
[1]
  EC50: 4.14 ± 0.66 µM
[2]
  EC50: 2.34 ± 0.1 µM

— publication PMC7697191, “Identification of Novel Influenza Polymerase PB2 Inhibitors Using a Cascade Docking Virtual Screening Approach” (Molecules, 2020)
